Data published in patent publication US5391540A, “Substituted pyridine compounds” (Rohm and Haas Company, priority 1993, dated 1995).

Assays:
Type in all cases: in vivo
Mogl = experiment: plant injury after spraying emerged plants (Table D); parameters: scale not given here
Summary of the method: (§1)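 Injury to emerged plants was assessed after spraying. Plants came from seeds or propagules sown into sterilized, sieved silt-loam topsoil under a 1.27 cm layer of 50% topsoil with peat moss, vermiculite and wetting agent, then kept on greenhouse capillary mats with subirrigation.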

Bygr = experiment: as above; parameters: scale not given here
Summary of the method: as §1

Rice = experiment: as above; parameters: scale not given here
Summary of the method: as §1

Cobu = experiment: as above; parameters: scale not given here
Summary of the method: as §1

Grso = experiment: as above; parameters: scale not given here
Summary of the method: as §1

Whez = experiment: as above; parameters: scale not given here
Summary of the method: as §1

Grft = experiment: as above; parameters: scale not given here
Summary of the method: as §1

Sobe = experiment: as above; parameters: scale not given here
Summary of the method: as §1

Corn = experiment: as above; parameters: scale not given here
Summary of the method: as §1

Yellow Nutsedge = experiment: Pre-emergent herbicidal activity (Table A); conditions: Cyperus, pre-emergence, Yens, 11.2 kg/ha, 10-14 days, read-out: herbicidal rating (% inhibition)
Summary of the method: (§2)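 Percent inhibition per species, scored on a rating scale, after pre-emergent soil incorporation: test compound in acetone or water carrier mixed into cover soil, layered over seeded topsoil or vegetative propagules.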

Barnyardgrass = experiment: Pre-emergent herbicidal activity (Table A); conditions: Echinochloa crus-galli, pre-emergence, Bygr, 11.2 kg/ha, 10-14 days, read-out: herbicidal rating (% inhibition)
Summary of the method: as §2

Downy Brome = experiment: Pre-emergent herbicidal activity (Table A); conditions: Bromus tectorum, pre-emergence, Dobr, 11.2 kg/ha, 10-14 days, read-out: herbicidal rating (% inhibition)
Summary of the method: as §2

Morningglory = experiment: Pre-emergent herbicidal activity (Table A); conditions: Ipomoea, pre-emergence, Mogl, 11.2 kg/ha, 10-14 days, read-out: herbicidal rating (% inhibition)
Summary of the method: as §2

Velvetleaf = experiment: Pre-emergent herbicidal activity (Table A); conditions: Abutilon theophrasti, pre-emergence, Vele, 11.2 kg/ha, 10-14 days, read-out: herbicidal rating (% inhibition)
Summary of the method: as §2

Cocklebur = experiment: Pre-emergent herbicidal activity (Table A); conditions: Xanthium strumarium, pre-emergence, Cobu, 11.2 kg/ha, 10-14 days, read-out: herbicidal rating (% inhibition)
Summary of the method: as §2

Dobr = experiment: plant injury after spraying emerged plants (Table D)

COC(=O)c1c(OC)nc(C(F)(F)F)c(C(=O)Cl)c1CC1CC1 [Compound 113, 3-pyridinecarboxylic acid, 5-(chlorocarbonyl)-4-(cyclopropylmethyl)-2-methoxy-6-(trifluoromethyl)-, methyl ester]
plant injury rating, Mogl (Mogl; 0.2803 kg/ha): 0 | plant injury rating, Mogl (Mogl; 1.1210 kg/ha): 0 | plant injury rating, Mogl (Mogl; 5.6050 kg/ha): 1 | plant injury rating, Bygr (Bygr; 0.2803 kg/ha): 0 | plant injury rating, Bygr (Bygr; 1.1210 kg/ha): 0 | plant injury rating, Bygr (Bygr; 5.6050 kg/ha): 0 | plant injury rating, Rice (Rice; 0.2803 kg/ha): 0 | plant injury rating, Rice (Rice; 1.1210 kg/ha): 0 | plant injury rating, Rice (Rice; 5.6050 kg/ha): 0 | plant injury rating, Cobu (Cobu; 0.2803 kg/ha): 0 | plant injury rating, Cobu (Cobu; 1.1210 kg/ha): 0 | plant injury rating, Cobu (Cobu; 5.6050 kg/ha): 0 | plant injury rating, Grso (Grso; 0.2803 kg/ha): 0 | plant injury rating, Grso (Grso; 1.1210 kg/ha): 0 | plant injury rating, Grso (Grso; 5.6050 kg/ha): 0 | plant injury rating, Whez (Whez; 0.2803 kg/ha): 0 | plant injury rating, Whez (Whez; 1.1210 kg/ha): 0 | plant injury rating, Whez (Whez; 5.6050 kg/ha): 0 | plant injury rating, Grft (Grft; 0.2803 kg/ha): 0 | plant injury rating, Grft (Grft; 1.1210 kg/ha): 0 | plant injury rating, Grft (Grft; 5.6050 kg/ha): 0 | plant injury rating, Sobe (Sobe; 0.2803 kg/ha): 0 | plant injury rating, Sobe (Sobe; 1.1210 kg/ha): 0 | plant injury rating, Sobe (Sobe; 5.6050 kg/ha): 1 | plant injury rating, Corn (Corn; 0.2803 kg/ha): 0 | plant injury rating, Corn (Corn; 1.1210 kg/ha): 0 | plant injury rating, Corn (Corn; 5.6050 kg/ha): 0 | inhibition at 11200 g/ha (Yellow Nutsedge): 0 to 24% | inhibition at 11200 g/ha (Barnyardgrass): 75 to 100% | inhibition at 11200 g/ha (Downy Brome): 75 to 100% | inhibition at 11200 g/ha (Morningglory): 25 to 49% | inhibition at 11200 g/ha (Velvetleaf): 25 to 49% | inhibition at 11200 g/ha (Cocklebur): 0 to 24% | plant injury rating, Dobr (Dobr; 0.2803 kg/ha): 0 | plant injury rating, Dobr (Dobr; 1.1210 kg/ha): 0 | plant injury rating, Dobr (Dobr; 5.6050 kg/ha): 0

COC(=O)c1c(OC)nc(C(F)(F)F)c(C2SCCS2)c1CC(C)C [Compound 93, 3-pyridinecarboxylic acid, 5-(1,3-dithiolan-2-yl)-2-methoxy-4-(2-methylpropyl)-6-(trifluoromethyl)-, methyl ester]
plant injury rating, Mogl (Mogl; 0.0701 kg/ha): 0 | plant injury rating, Mogl (Mogl; 0.2803 kg/ha): 2 | plant injury rating, Mogl (Mogl; 1.1210 kg/ha): 2 | plant injury rating, Mogl (Mogl; 5.6050 kg/ha): 3 | plant injury rating, Bygr (Bygr; 0.0701 kg/ha): 0 | plant injury rating, Bygr (Bygr; 0.2803 kg/ha): 0 | plant injury rating, Bygr (Bygr; 1.1210 kg/ha): 0 | plant injury rating, Bygr (Bygr; 5.6050 kg/ha): 2 | plant injury rating, Rice (Rice; 0.0701 kg/ha): 0 | plant injury rating, Rice (Rice; 0.2803 kg/ha): 0 | plant injury rating, Rice (Rice; 1.1210 kg/ha): 0 | plant injury rating, Rice (Rice; 5.6050 kg/ha): 0 | plant injury rating, Cobu (Cobu; 0.0701 kg/ha): 0 | plant injury rating, Cobu (Cobu; 0.2803 kg/ha): 0 | plant injury rating, Cobu (Cobu; 1.1210 kg/ha): 2 | plant injury rating, Cobu (Cobu; 5.6050 kg/ha): 3 | plant injury rating, Grso (Grso; 0.0701 kg/ha): 0 | plant injury rating, Grso (Grso; 0.2803 kg/ha): 0 | plant injury rating, Grso (Grso; 1.1210 kg/ha): 0 | plant injury rating, Grso (Grso; 5.6050 kg/ha): 2 | plant injury rating, Whez (Whez; 0.0701 kg/ha): 0 | plant injury rating, Whez (Whez; 0.2803 kg/ha): 0 | plant injury rating, Whez (Whez; 1.1210 kg/ha): 0 | plant injury rating, Whez (Whez; 5.6050 kg/ha): 0 | plant injury rating, Grft (Grft; 0.0701 kg/ha): 0 | plant injury rating, Grft (Grft; 0.2803 kg/ha): 0 | plant injury rating, Grft (Grft; 1.1210 kg/ha): 0 | plant injury rating, Grft (Grft; 5.6050 kg/ha): 1 | plant injury rating, Sobe (Sobe; 0.0701 kg/ha): 0 | plant injury rating, Sobe (Sobe; 0.2803 kg/ha): 1 | plant injury rating, Sobe (Sobe; 1.1210 kg/ha): 2 | plant injury rating, Sobe (Sobe; 5.6050 kg/ha): 3 | plant injury rating, Corn (Corn; 0.0701 kg/ha): 0 | plant injury rating, Corn (Corn; 0.2803 kg/ha): 3 | plant injury rating, Corn (Corn; 1.1210 kg/ha): 3 | plant injury rating, Corn (Corn; 5.6050 kg/ha): 3 | inhibition at 11200 g/ha (Yellow Nutsedge): 0 to 24% | inhibition at 11200 g/ha (Barnyardgrass): 75 to 100% | inhibition at 11200 g/ha (Downy Brome): 75 to 100% | inhibition at 11200 g/ha (Morningglory): 75 to 100% | inhibition at 11200 g/ha (Velvetleaf): 75 to 100% | inhibition at 11200 g/ha (Cocklebur): 0 to 24% | plant injury rating, Dobr (Dobr; 0.0701 kg/ha): 0 | plant injury rating, Dobr (Dobr; 0.2803 kg/ha): 0 | plant injury rating, Dobr (Dobr; 1.1210 kg/ha): 0 | plant injury rating, Dobr (Dobr; 5.6050 kg/ha): 0

COC(=O)c1c(OC)nc(C(F)(F)F)c(C2=NCCS2)c1CC(C)C [Compound 50, 3-pyridinecarboxylic acid, 5-(4,5-dihydro-2-thiazolyl)-2-methoxy-4-(2-methylpropyl)-6-(trifluoromethyl)-, methyl ester]
plant injury rating, Mogl (Mogl; 0.0701 kg/ha): 1 | plant injury rating, Mogl (Mogl; 0.2803 kg/ha): 2 | plant injury rating, Mogl (Mogl; 1.1210 kg/ha): 2 | plant injury rating, Mogl (Mogl; 5.3808 kg/ha): 3 | plant injury rating, Bygr (Bygr; 0.0701 kg/ha): 0 | plant injury rating, Bygr (Bygr; 0.2803 kg/ha): 0 | plant injury rating, Bygr (Bygr; 1.1210 kg/ha): 1 | plant injury rating, Rice (Rice; 0.0701 kg/ha): 0 | plant injury rating, Rice (Rice; 0.2803 kg/ha): 0 | plant injury rating, Rice (Rice; 1.1210 kg/ha): 1 | plant injury rating, Rice (Rice; 5.3808 kg/ha): 0 | plant injury rating, Cobu (Cobu; 0.0701 kg/ha): 0 | plant injury rating, Cobu (Cobu; 0.2803 kg/ha): 1 | plant injury rating, Cobu (Cobu; 1.1210 kg/ha): 2 | plant injury rating, Cobu (Cobu; 5.3808 kg/ha): 3 | plant injury rating, Grso (Grso; 0.0701 kg/ha): 0 | plant injury rating, Grso (Grso; 0.2803 kg/ha): 0 | plant injury rating, Grso (Grso; 1.1210 kg/ha): 0 | plant injury rating, Whez (Whez; 0.0701 kg/ha): 0 | plant injury rating, Whez (Whez; 0.2803 kg/ha): 0 | plant injury rating, Whez (Whez; 1.1210 kg/ha): 0 | plant injury rating, Whez (Whez; 5.3808 kg/ha): 0 | plant injury rating, Grft (Grft; 0.0701 kg/ha): 0 | plant injury rating, Grft (Grft; 0.2803 kg/ha): 1 | plant injury rating, Grft (Grft; 1.1210 kg/ha): 1 | plant injury rating, Grft (Grft; 5.3808 kg/ha): 2 | plant injury rating, Sobe (Sobe; 0.0701 kg/ha): 0 | plant injury rating, Sobe (Sobe; 0.2803 kg/ha): 1 | plant injury rating, Sobe (Sobe; 1.1210 kg/ha): 2 | plant injury rating, Sobe (Sobe; 5.3808 kg/ha): 3 | plant injury rating, Corn (Corn; 0.0701 kg/ha): 0 | plant injury rating, Corn (Corn; 0.2803 kg/ha): 0 | inhibition at 11200 g/ha (Yellow Nutsedge): 75 to 100% | inhibition at 11200 g/ha (Barnyardgrass): 75 to 100% | inhibition at 11200 g/ha (Downy Brome): 75 to 100% | inhibition at 11200 g/ha (Morningglory): 75 to 100% | inhibition at 11200 g/ha (Velvetleaf): 75 to 100% | inhibition at 11200 g/ha (Cocklebur): 75 to 100% | plant injury rating, Dobr (Dobr; 0.0701 kg/ha): 0 | plant injury rating, Dobr (Dobr; 1.1210 kg/ha): 0 | plant injury rating, Dobr (Dobr; 5.3808 kg/ha): 0

COC(=O)c1c(O)nc(C(F)(F)F)c(C(=O)OC)c1CC(C)C [Compound 1, 3,5-pyridinedicarboxylic acid, 2-hydroxy-4-(2-methylpropyl)-6-(trifluoromethyl)-, dimethyl ester]
plant injury rating, Mogl (Mogl; 1.1210 kg/ha): 1 | plant injury rating, Bygr (Bygr; 0.0701 kg/ha): 0 | plant injury rating, Bygr (Bygr; 1.1210 kg/ha): 1 | plant injury rating, Rice (Rice; 0.0701 kg/ha): 0 | plant injury rating, Rice (Rice; 0.2803 kg/ha): 0 | plant injury rating, Rice (Rice; 1.1210 kg/ha): 0 | plant injury rating, Cobu (Cobu; 0.0701 kg/ha): 0 | plant injury rating, Cobu (Cobu; 0.2803 kg/ha): 0 | plant injury rating, Cobu (Cobu; 1.1210 kg/ha): 0 | plant injury rating, Cobu (Cobu; 5.3808 kg/ha): 4 | plant injury rating, Grso (Grso; 0.0701 kg/ha): 0 | plant injury rating, Grso (Grso; 0.2803 kg/ha): 0 | plant injury rating, Grso (Grso; 1.1210 kg/ha): 0 | plant injury rating, Whez (Whez; 0.0701 kg/ha): 0 | plant injury rating, Whez (Whez; 0.2803 kg/ha): 0 | plant injury rating, Whez (Whez; 1.1210 kg/ha): 0 | plant injury rating, Whez (Whez; 5.3808 kg/ha): 0 | plant injury rating, Grft (Grft; 0.0701 kg/ha): 0 | plant injury rating, Grft (Grft; 0.2803 kg/ha): 0 | plant injury rating, Sobe (Sobe; 0.2803 kg/ha): 2 | plant injury rating, Sobe (Sobe; 1.1210 kg/ha): 1 | plant injury rating, Sobe (Sobe; 5.3808 kg/ha): 3 | plant injury rating, Corn (Corn; 0.0701 kg/ha): 0 | plant injury rating, Corn (Corn; 0.2803 kg/ha): 0 | plant injury rating, Corn (Corn; 1.1210 kg/ha): 2 | plant injury rating, Corn (Corn; 5.3808 kg/ha): 2 | inhibition at 11200 g/ha (Yellow Nutsedge): 0 to 24% | inhibition at 11200 g/ha (Barnyardgrass): 0 to 24% | inhibition at 11200 g/ha (Downy Brome): 0 to 24% | inhibition at 11200 g/ha (Morningglory): 0 to 24% | inhibition at 11200 g/ha (Velvetleaf): 0 to 24% | inhibition at 11200 g/ha (Cocklebur): 0 to 24% | plant injury rating, Dobr (Dobr; 0.0701 kg/ha): 0 | plant injury rating, Dobr (Dobr; 0.2803 kg/ha): 0 | plant injury rating, Dobr (Dobr; 1.1210 kg/ha): 0 | plant injury rating, Dobr (Dobr; 5.3808 kg/ha): 0
